The subject of one test is Rat white adipocytes. The test is described as follows: Stimulation of differentiation of the adipocytes (Oil Red O). The format is cell-based. The settings on record: Rattus norvegicus, Adipocyte, 120 h, 100 nM test compound; 5 days; Oil Red O ABS550; control = 100%, blank = 0%; Table 7; read-out: Rate of Differentiation (%). The method in brief:
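Oil Red O lipid staining, absorbance 550 nm after DMSO extraction, quantified differentiation of rat white adipocytes exposed 5 days to compound (final 100 nM, 0.1% DMSO) in differentiation medium. Percent differentiation normalised between cell-free blank (0%) and DMSO control (100%).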

Test [1] deals with human colon cancer cells COL-2-JCK. The test is described as follows: Inhibition of colony forming activity in human colon cancer cells. The conditions noted are these: Homo sapiens, 240 h; 1 μM test compound; 10 days; sum of colony areas vs control; read-out: Inhibition Rate (%) against the colony forming activity. It counts as cell-based. The procedure:
For the medium to culture the human colon cancer cells, D-MEM/F-12 medium containing inactivated bovine fetal serum at a concentration of 10% (GIBCO) was used. The human colon cancer cells COL-2-JCK (purchased from Institute for Experimental Animals) grown in mass formation in a plastic dish for the cell culture with an inner diameter of 100 mm were stripped off from the dish by using EDTA (ethylenediaminetetraacetic acid) and 0.05% trypsin solution. Then, a cell dilution solution was prepared at a concentration of 100 cells/mL solution which was diluted with the medium (D-MEM/F-12).
Three (3) mL of the cell solution were inoculated in each well of a 6-well plastic plate (300 cells/well). The test compound that was dissolved in DMSO solution so as to be a final concentration of 1 μM of the test compound and that of DMSO solution of 0.1% was added to each well. DMSO solution alone was added into the well for the control so as to be a final concentration of 0.1%.
The cells in each well were cultured for 10 days at 37° C. in the presence of 5% CO2. After the culturing was finalised, each well was washed once with Dulbecco-phosphate-buffer-saline solution (bivalent anion). Then, 1.5 ml of neutral buffered formalin solution containing 0.02% crystal violet was added to each well and the plate was kept stationary for 5 min for fixation and staining the cells. After fixation and staining, the cells were washed with water and were air-dried. Then the sum of the colony area (mm^2) of the stained cancer cells was calculated by using an image analyzer PCA-11 (SystemScience). From the calculated values, the inhibition rate (%) of the compound against the colony forming activity was obtained based on the following equation.
Inhibition Rate (%) against the colony forming activity=(1−A/B)×100
A: Sum of Colony Areas in the Group Treated with 1 μM of the Test Compound
B: Sum of Colony Areas in the Control Group

In test [2] the test system is Mouse preadipocyte strain 3T3-L1. The test is described as follows: Inhibition of differentiation as an indication of acetic acid uptake. It counts as cell-based. The settings on record: Mus musculus, 3T3-L1, 0.1 μM test substance, control (0.01% dimethylsulfoxide) = 100%, read-out: Rate of Uptake (%) of [2-14C] acetic acid. The method, boiled down:
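Differentiation is indexed by 1 hr [2-14C]acetic acid incorporation, measured by scintillation counting and given as uptake relative to 0.01% DMSO control (100%). Mouse 3T3-L1 preadipocytes, pre-grown 10 days, received 0.1 μM test substance throughout a 4-day insulin/IBMX/dexamethasone induction, followed by 2 days' maintenance culture.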

For a further test, the system named is TNF-α production. The test is described as follows: Inhibitory activity against cytokine (TNF-α) production in LPS-stimulated RAW264.7 cells. It counts as cell-based, mouse. The conditions noted are these: Mus musculus, RAW264.7, 15 h, 1 μM test compound, LPS 10 ng/mL. The procedure:
The mouse monocyte/macrophage cell line, RAW264.7 (ATCC TIB71) was purchased from Dainippon Pharmaceutical Co., Ltd. The RAW264.7 cells were cultured in a CO2 incubator (37° C., 95% of humidity, 5% of CO2) by using the Dulbecco's modified Eagle's medium (DMEM medium; GIBCO, Cat. No. 11995-040) containing bovine fetal serum (the final concentration: 10% (v/v), MOREGATE, lot No. 474030), penicillin G (the final concentration: 50 units/mL […], GIBCO) and streptomycin (the final concentration: 20 μg/mL, GIBCO).
Sixty (60) μL of the RAW264.7 cell suspension (83,000 cells/mL) were plated into each well of a 96-well microplate (5,000 cells/well). After the cells were cultured for 4 hr in a CO2 incubator, 40 μL of DMEM medium containing 25 ng/mL of LPS (Sigma-Aldrich Japan K. K.) were added into each well (final concentration of LPS: 10 ng/mL). The test compound dissolved in DMSO at a concentration of 1 mM was diluted with DMEM medium by 20 times. Then 2 μL/well of the diluted solution were added to wells containing the plated cells (final concentration of the test compound: 1 μM). As the control, 2 μL/well of DMSO diluted with DMEM medium by 20 times were added to wells containing the plated cells either with LPS (final concentration: 10 ng/mL) or without LPS. After these cells were cultured in a CO2 incubator for 15 hr, the supernatant of the medium was recovered. The amount of mTNF-α in the medium supernatant was determined with a mouse TNF-α ELISA kit Quantikine M (R&D System), according to the experiment protocol attached with the kit.
The inhibitory activity of the test compound against TNF-α production was calculated according to the following equation.
A: The amount of TNF-α in the presence of test compound
B: The amount of TNF-α in the control without LPS
C: The amount of TNF-α in the control with 10 ng/mL of LPS
Inhibitory Activity of the Test Compound against TNF-α Production (%)=100−(A−B)/(C−B)×100

In US20030134859A1 (SANKYO COMPANY, LIMITED, priority 2000, published 2003) one finds activity and inhibition data, which are given here for 5 compounds.

In general, inhibition refers to the percentage by which the read-out fell short of the control. Take `O=C(Nc1cccc2ncccc12)c1cc([N+](=O)[O-])ccc1Cl` [Example 56, N-(5-Quinolinyl)-(2-chloro-5-nitrophenyl)carboxamide]: the activity at 0.1 µM with Rat white adipocytes was 114%; in test [2] it was 32.4%. In addition, in test [1], the inhibition at 1 µM worked out at 6%.

Turning to `CCc1cccc(NC(=O)c2cc([N+](=O)[O-])ccc2Cl)c1` [Example 14, N-(3-Ethylphenyl)-(2-chloro-5-nitrophenyl)carboxamide], the activity at 0.1 µM with Rat white adipocytes was determined as 121%; in test [2] it was 82.1%. The inhibition at 1 µM in test [1] worked out at 16%.

For `O=C(Nc1cc(-c2ccccc2)[nH]n1)c1cc([N+](=O)[O-])ccc1Cl` [Example 72, N-(5-Phenylpyrazol-3-yl)-(2-chloro-5-nitrophenyl)carboxamide], the activity at 0.1 µM with Rat white adipocytes was 124%; in test [2], 76.7%. Besides, the inhibition at 1 µM in test [1] worked out at 39%.

Regarding `COc1ccc2nc(NC(=O)c3cc([N+](=O)[O-])ccc3Cl)sc2c1` [Example 67, N-(6-Methoxybenzothiazol-2-yl)-(2-chloro-5-nitrophenyl)carboxamide], the inhibition at 1 µM in the test on TNF-α production worked out at 23.2%; in test [1], 31%. The activity at 0.1 µM in test [2] was 70.2%.

In the case of `O=C(Nc1ccc(S(=O)(=O)Nc2ncccn2)cc1)c1cc([N+](=O)[O-])ccc1Cl` [Example 95, N-[4-[(Pyrimidin-2-yl)aminosulfonyl]phenyl]-(2-chloro-5-nitrophenyl)carboxamide], the activity at 0.1 µM in the test with Rat white adipocytes was found to be 115%; in test [2], 86.3%. For the same compound, the inhibition at 1 µM in test [1] is 1%.
